Results taken from ChEMBL document CHEMBL1955717, “Synthesis and in vitro study of novel neuraminidase inhibitors against avian influenza virus” (Bioorg Med Chem, 2012).

Tests used:
Neuraminidase [1] = target: T1, Neuraminidase (Influenza A virus, UniProt B4URF0); design: species or system H7N1
Neuraminidase [2] = target: T1, Neuraminidase; design: species or system H7N3

T1 sequence (B4URF0 whole entry): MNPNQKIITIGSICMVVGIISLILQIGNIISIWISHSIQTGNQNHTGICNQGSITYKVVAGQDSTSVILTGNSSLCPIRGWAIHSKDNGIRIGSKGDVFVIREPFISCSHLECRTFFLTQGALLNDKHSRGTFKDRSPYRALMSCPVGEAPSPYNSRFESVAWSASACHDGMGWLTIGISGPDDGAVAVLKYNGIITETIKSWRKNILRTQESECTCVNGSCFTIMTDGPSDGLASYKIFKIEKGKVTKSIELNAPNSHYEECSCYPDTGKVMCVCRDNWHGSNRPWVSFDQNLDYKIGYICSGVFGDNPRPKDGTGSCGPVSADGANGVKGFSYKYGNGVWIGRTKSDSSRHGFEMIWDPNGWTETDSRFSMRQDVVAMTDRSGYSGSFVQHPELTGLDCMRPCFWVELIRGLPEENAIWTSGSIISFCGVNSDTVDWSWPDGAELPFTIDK

Structure (SMILES) | IC50 (Neuraminidase [1]) [nM] | IC50 (Neuraminidase [2]) [nM]
C=CC(=O)N[C@@H]1[C@@H](NCC(C)C)CC(C(=O)O)=C[C@H]1OC(CC)CC | 14.6 | 28.1
CCC(CC)O[C@@H]1C=C(C(=O)O)C[C@H](N=[N+]=[N-])[C@H]1NC(C)=O | 84.4 | 2.2
C=CC(=O)N[C@@H]1[C@@H](N)CC(C(=O)O)=C[C@H]1OC(CC)CC | 31.8 | 0.1
C/C=C/C(=O)N[C@@H]1[C@@H](N)CC(C(=O)O)=C[C@H]1OC(CC)CC | 139000 | 4510
C/C=C/C(=O)N[C@@H]1[C@@H](N=[N+]=[N-])CC(C(=O)O)=C[C@H]1OC(CC)CC | 51600 | 99300
